Experimental data reported in PubChem BioAssay (NCI).
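Tested at 5 concentrations; 48 h exposure; 96-well plates; endpoints linearly interpolated, else capped at highest concentration. At the TGI there is no net growth.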

Assays:
Experiment in all cases: NCI tumour cell line growth inhibition, 48 h
PC-3 prostate = test system: PC-3 prostate
SF-539 CNS = test system: SF-539 CNS
HCT-15 colon = test system: HCT-15 colon
A549 NSCLC = test system: A549 NSCLC
SK-OV-3 ovarian = test system: SK-OV-3 ovarian
M14 melanoma = test system: M14 melanoma
K-562 leukemia = test system: K-562 leukemia
A498 renal = test system: A498 renal
NCI-H460 lung = test system: NCI-H460 lung
SR leukemia = test system: SR leukemia
SNB-75 CNS = test system: SNB-75 CNS
OVCAR-4 ovarian = test system: OVCAR-4 ovarian
ACHN renal = test system: ACHN renal
MDA-N = test system: MDA-N
MDA-MB-435 = test system: MDA-MB-435
NCI-H23 lung = test system: NCI-H23 lung
SK-MEL-5 melanoma = test system: SK-MEL-5 melanoma
HCC-2998 colon = test system: HCC-2998 colon
CAKI-1 renal = test system: CAKI-1 renal
OVCAR-3 ovarian = test system: OVCAR-3 ovarian
SNB-19 CNS = test system: SNB-19 CNS
OVCAR-5 ovarian = test system: OVCAR-5 ovarian
SK-MEL-28 melanoma = test system: SK-MEL-28 melanoma
786-0 renal = test system: 786-0 renal
HT29 colon = test system: HT29 colon
U251 CNS = test system: U251 CNS
MOLT-4 leukemia = test system: MOLT-4 leukemia
NCI-H226 lung = test system: NCI-H226 lung
OVCAR-8 ovarian = test system: OVCAR-8 ovarian
TK-10 renal = test system: TK-10 renal
LOX IMVI melanoma = test system: LOX IMVI melanoma
BT-549 breast = test system: BT-549 breast
RXF 393 renal = test system: RXF 393 renal
DU-145 prostate = test system: DU-145 prostate
CCRF-CEM leukemia = test system: CCRF-CEM leukemia
SF-295 CNS = test system: SF-295 CNS
SF-268 CNS = test system: SF-268 CNS
HOP-62 NSCLC = test system: HOP-62 NSCLC
MCF7 breast = test system: MCF7 breast
UACC-257 melanoma = test system: UACC-257 melanoma
EKVX NSCLC = test system: EKVX NSCLC
HS 578T breast = test system: HS 578T breast
UACC-62 melanoma = test system: UACC-62 melanoma
SK-MEL-2 melanoma = test system: SK-MEL-2 melanoma
HCT-116 colon = test system: HCT-116 colon
IGROV1 ovarian = test system: IGROV1 ovarian
HL-60(TB) leukemia = test system: HL-60(TB) leukemia
NCI-H522 lung = test system: NCI-H522 lung
RPMI-8226 leukemia = test system: RPMI-8226 leukemia
SW-620 colon = test system: SW-620 colon
KM12 colon = test system: KM12 colon
UO-31 renal = test system: UO-31 renal
NCI/ADR-RES ovarian = test system: NCI/ADR-RES ovarian
T-47D breast = test system: T-47D breast
SN12C renal = test system: SN12C renal
MDA-MB-231 breast = test system: MDA-MB-231 breast
MALME-3M melanoma = test system: MALME-3M melanoma
COLO 205 colon = test system: COLO 205 colon
HOP-92 NSCLC = test system: HOP-92 NSCLC

Work on `Cn1c2ccccc2n2c3ccccc3c(=S)c(C#N)c12` yielded a TGI (PC-3 prostate) of over 100 µM, a TGI (SF-539 CNS) of over 100 µM and a TGI (HCT-15 colon) of over 100 µM. The TGI (A549 NSCLC) was over 100 µM, the TGI (SK-OV-3 ovarian) was over 100 µM and the TGI (M14 melanoma) was over 100 µM. The TGI (K-562 leukemia) was over 100 µM, the TGI (A498 renal) was over 100 µM and the TGI (NCI-H460 lung) was over 100 µM. The TGI (SR leukemia) was over 100 µM, the TGI (SNB-75 CNS) was over 100 µM and the TGI (OVCAR-4 ovarian) was over 100 µM. It also gave a TGI (ACHN renal) of over 100 µM, a TGI (MDA-N) of over 100 µM and a TGI (MDA-MB-435) of over 100 µM. For the same compound, the TGI (NCI-H23 lung) was over 100 µM, the TGI (SK-MEL-5 melanoma) was over 100 µM and the TGI (HCC-2998 colon) was over 100 µM. The TGI (CAKI-1 renal) was over 100 µM, the TGI (OVCAR-3 ovarian) was over 100 µM and the TGI (SNB-19 CNS) was over 100 µM. For the same compound, the TGI (OVCAR-5 ovarian) was over 100 µM, the TGI (SK-MEL-28 melanoma) was over 100 µM and the TGI (786-0 renal) was over 100 µM. For the same compound, the TGI (HT29 colon) was over 100 µM, the TGI (U251 CNS) was over 100 µM and the TGI (MOLT-4 leukemia) was over 100 µM. The TGI (NCI-H226 lung) was over 100 µM, the TGI (OVCAR-8 ovarian) was over 100 µM and the TGI (TK-10 renal) was over 100 µM. It also gave a TGI (LOX IMVI melanoma) of over 100 µM, a TGI (BT-549 breast) of over 100 µM and a TGI (RXF 393 renal) of over 100 µM. It also gave a TGI (DU-145 prostate) of over 100 µM, a TGI (CCRF-CEM leukemia) of over 100 µM and a TGI (SF-295 CNS) of over 100 µM. The TGI (SF-268 CNS) was over 100 µM, the TGI (HOP-62 NSCLC) was over 100 µM and the TGI (MCF7 breast) was over 100 µM. The TGI (UACC-257 melanoma) was over 100 µM, the TGI (EKVX NSCLC) was over 100 µM and the TGI (HS 578T breast) was over 100 µM. It also gave a TGI (UACC-62 melanoma) of over 100 µM, a TGI (SK-MEL-2 melanoma) of over 100 µM and a TGI (HCT-116 colon) of over 100 µM. It also gave a TGI (IGROV1 ovarian) of over 100 µM, a TGI (HL-60(TB) leukemia) of over 100 µM and a TGI (NCI-H522 lung) of over 100 µM. It also gave a TGI (RPMI-8226 leukemia) of over 100 µM, a TGI (SW-620 colon) of over 100 µM and a TGI (KM12 colon) of over 100 µM. For the same compound, the TGI (UO-31 renal) was over 100 µM and the TGI (NCI/ADR-RES ovarian) was over 100 µM.

Work on `CN(C)CCCNC(=O)CNC(=O)c1cc(NC(=O)c2cc(NC(=O)c3cc(NC(=O)CCNC(=O)c4cc(NC(=O)c5cc(NC(=O)c6nccn6C)cn5C)cn4C)cn3C)cn2C)cn1C` yielded a TGI (PC-3 prostate) of over 100 µM, a TGI (SF-539 CNS) of over 100 µM and a TGI (HCT-15 colon) of over 100 µM. For the same compound, the TGI (A549 NSCLC) was over 100 µM, the TGI (SK-OV-3 ovarian) was over 100 µM and the TGI (M14 melanoma) was over 100 µM. The TGI (K-562 leukemia) was over 100 µM, the TGI (A498 renal) was over 100 µM and the TGI (NCI-H460 lung) was over 100 µM. It also gave a TGI (SNB-75 CNS) of over 100 µM, a TGI (OVCAR-4 ovarian) of over 100 µM and a TGI (ACHN renal) of over 100 µM. It also gave a TGI (MDA-N) of over 100 µM, a TGI (MDA-MB-435) of over 100 µM and a TGI (T-47D breast) of over 100 µM. For the same compound, the TGI (SN12C renal) was over 100 µM, the TGI (NCI-H23 lung) was over 100 µM and the TGI (SK-MEL-5 melanoma) was over 100 µM. The TGI (HCC-2998 colon) was over 100 µM, the TGI (CAKI-1 renal) was over 100 µM and the TGI (OVCAR-3 ovarian) was over 100 µM. The TGI (SNB-19 CNS) was over 100 µM, the TGI (OVCAR-5 ovarian) was over 100 µM and the TGI (SK-MEL-28 melanoma) was over 100 µM. It also gave a TGI (786-0 renal) of over 100 µM, a TGI (MDA-MB-231 breast) of over 100 µM and a TGI (MALME-3M melanoma) of over 100 µM. It also gave a TGI (HT29 colon) of over 100 µM, a TGI (U251 CNS) of over 100 µM and a TGI (MOLT-4 leukemia) of 57 µM. The TGI (NCI-H226 lung) was over 100 µM, the TGI (OVCAR-8 ovarian) was over 100 µM and the TGI (TK-10 renal) was over 100 µM. It also gave a TGI (LOX IMVI melanoma) of over 100 µM, a TGI (COLO 205 colon) of over 100 µM and a TGI (DU-145 prostate) of over 100 µM. For the same compound, the TGI (CCRF-CEM leukemia) was 49.2 µM, the TGI (SF-295 CNS) was over 100 µM and the TGI (SF-268 CNS) was over 100 µM. The TGI (HOP-62 NSCLC) was over 100 µM, the TGI (MCF7 breast) was over 100 µM and the TGI (UACC-257 melanoma) was over 100 µM. The TGI (EKVX NSCLC) was over 100 µM, the TGI (HS 578T breast) was over 100 µM and the TGI (HOP-92 NSCLC) was over 100 µM. The TGI (SK-MEL-2 melanoma) was over 100 µM, the TGI (HCT-116 colon) was over 100 µM and the TGI (IGROV1 ovarian) was over 100 µM. For the same compound, the TGI (HL-60(TB) leukemia) was 94.1 µM, the TGI (NCI-H522 lung) was over 100 µM and the TGI (RPMI-8226 leukemia) was over 100 µM. The TGI (SW-620 colon) was over 100 µM, the TGI (KM12 colon) was over 100 µM and the TGI (UO-31 renal) was over 100 µM. The TGI (NCI/ADR-RES ovarian) was over 100 µM.
